# Measurements reported in ChEMBL document CHEMBL2069290, “Synthesis and biological evaluation of novel oxindole derivatives for imaging neurofibrillary tangles in Alzheimer's disease” (Bioorg Med Chem Lett, 2012).
# Tested on: Kidney
# Assay: Biodistribution in ddY mouse kidney at 3.3 to 6.7 kBq, iv after 60 mins by gamma counting
# Assay type: ADME, organism-based
# Conditions: in vivo, 1 h
row,Drug uptake [% ID/g],SMILES
1,10.01,CNc1ccc(/C=C2\Nc3ccc([125I])cc3C2=O)cc1

# Tested on: Blood
# Assay: Biodistribution in ddY mouse blood at 3.3 to 6.7 kBq, iv after 2 mins by gamma counting
# Assay type: ADME, organism-based
# Conditions: in vivo
row,Drug uptake [% ID/g],SMILES
1,7.5,CNc1ccc(/C=C2\Nc3ccc([125I])cc3C2=O)cc1

# Tested on: Blood
# Assay: Biodistribution in ddY mouse blood at 3.3 to 6.7 kBq, iv after 60 mins by gamma counting
# Assay type: ADME, organism-based
# Conditions: in vivo, 1 h
row,Drug uptake [% ID/g],SMILES
1,1.95,CNc1ccc(/C=C2\Nc3ccc([125I])cc3C2=O)cc1

# Tested on: Intestine
# Assay: Biodistribution in ddY mouse intestine at 3.3 to 6.7 kBq, iv after 60 mins by gamma counting
# Assay type: ADME, organism-based
# Conditions: in vivo, 1 h
row,Drug uptake [% ID/g],SMILES
1,9.86,CNc1ccc(/C=C2\Nc3ccc([125I])cc3C2=O)cc1

# Tested on: Pancreas
# Assay: Biodistribution in ddY mouse pancreas at 3.3 to 6.7 kBq, iv after 10 mins by gamma counting
# Assay type: ADME, organism-based
# Conditions: in vivo
row,Drug uptake [% ID/g],SMILES
1,2.95,CNc1ccc(/C=C2\Nc3ccc([125I])cc3C2=O)cc1

# Tested on: Blood
# Assay: Biodistribution in ddY mouse blood at 3.3 to 6.7 kBq, iv after 30 mins by gamma counting
# Assay type: ADME, organism-based
# Conditions: in vivo, 0.5 h
row,Drug uptake [% ID/g],SMILES
1,3.3,CNc1ccc(/C=C2\Nc3ccc([125I])cc3C2=O)cc1

# Tested on: Pancreas
# Assay: Biodistribution in ddY mouse pancreas at 3.3 to 6.7 kBq, iv after 60 mins by gamma counting
# Assay type: ADME, organism-based
# Conditions: in vivo, 1 h
row,Drug uptake [% ID/g],SMILES
1,1.4,CNc1ccc(/C=C2\Nc3ccc([125I])cc3C2=O)cc1

# Tested on: Liver
# Assay: Biodistribution in ddY mouse liver at 3.3 to 6.7 kBq, iv after 10 mins by gamma counting
# Assay type: ADME, organism-based
# Conditions: in vivo
row,Drug uptake [% ID/g],SMILES
1,12.4,CNc1ccc(/C=C2\Nc3ccc([125I])cc3C2=O)cc1

# Tested on: Brain
# Assay: Biodistribution in ddY mouse brain at 3.3 to 6.7 kBq, iv after 10 mins by gamma counting
# Assay type: ADME, organism-based
# Conditions: in vivo
row,Drug uptake [% ID/g],SMILES
1,1.75,CNc1ccc(/C=C2\Nc3ccc([125I])cc3C2=O)cc1

# Tested on: Liver
# Assay: Biodistribution in ddY mouse liver at 3.3 to 6.7 kBq, iv after 2 mins by gamma counting
# Assay type: ADME, organism-based
# Conditions: in vivo
row,Drug uptake [% ID/g],SMILES
1,9.51,CNc1ccc(/C=C2\Nc3ccc([125I])cc3C2=O)cc1

# Tested on: Heart
# Assay: Biodistribution in ddY mouse heart at 3.3 to 6.7 kBq, iv after 30 mins by gamma counting
# Assay type: ADME, organism-based
# Conditions: in vivo, 0.5 h
row,Drug uptake [% ID/g],SMILES
1,6.32,CNc1ccc(/C=C2\Nc3ccc([125I])cc3C2=O)cc1

# Tested on: Brain
# Assay: Biodistribution in ddY mouse brain at 3.3 to 6.7 kBq, iv after 60 mins by gamma counting
# Assay type: ADME, organism-based
# Conditions: in vivo, 1 h
row,Drug uptake [% ID/g],SMILES
1,0.23,CNc1ccc(/C=C2\Nc3ccc([125I])cc3C2=O)cc1

# Tested on: Heart
# Assay: Biodistribution in ddY mouse heart at 3.3 to 6.7 kBq, iv after 60 mins by gamma counting
# Assay type: ADME, organism-based
# Conditions: in vivo, 1 h
row,Drug uptake [% ID/g],SMILES
1,2.65,CNc1ccc(/C=C2\Nc3ccc([125I])cc3C2=O)cc1

# Tested on: Stomach
# Assay: Biodistribution in ddY mouse stomach assessed per organ at 3.3 to 6.7 kBq, iv after 2 mins by gamma counting
# Assay type: ADME, organism-based
# Conditions: in vivo
row,Drug uptake [%ID],SMILES
1,0.77,CNc1ccc(/C=C2\Nc3ccc([125I])cc3C2=O)cc1

# Tested on: Liver
# Assay: Biodistribution in ddY mouse liver at 3.3 to 6.7 kBq, iv after 60 mins by gamma counting
# Assay type: ADME, organism-based
# Conditions: in vivo, 1 h
row,Drug uptake [% ID/g],SMILES
1,6.26,CNc1ccc(/C=C2\Nc3ccc([125I])cc3C2=O)cc1

# Tested on: Spleen
# Assay: Biodistribution in ddY mouse spleen at 3.3 to 6.7 kBq, iv after 10 mins by gamma counting
# Assay type: ADME, organism-based
# Conditions: in vivo
row,Drug uptake [% ID/g],SMILES
1,9.67,CNc1ccc(/C=C2\Nc3ccc([125I])cc3C2=O)cc1

# Tested on: Kidney
# Assay: Biodistribution in ddY mouse kidney at 3.3 to 6.7 kBq, iv after 10 mins by gamma counting
# Assay type: ADME, organism-based
# Conditions: in vivo
row,Drug uptake [% ID/g],SMILES
1,18.16,CNc1ccc(/C=C2\Nc3ccc([125I])cc3C2=O)cc1

# Tested on: Kidney
# Assay: Biodistribution in ddY mouse kidney at 3.3 to 6.7 kBq, iv after 2 mins by gamma counting
# Assay type: ADME, organism-based
# Conditions: in vivo
row,Drug uptake [% ID/g],SMILES
1,13.48,CNc1ccc(/C=C2\Nc3ccc([125I])cc3C2=O)cc1

# Tested on: Kidney
# Assay: Biodistribution in ddY mouse kidney at 3.3 to 6.7 kBq, iv after 30 mins by gamma counting
# Assay type: ADME, organism-based
# Conditions: in vivo, 0.5 h
row,Drug uptake [% ID/g],SMILES
1,19.35,CNc1ccc(/C=C2\Nc3ccc([125I])cc3C2=O)cc1

# Tested on: Heart
# Assay: Biodistribution in ddY mouse heart at 3.3 to 6.7 kBq, iv after 10 mins by gamma counting
# Assay type: ADME, organism-based
# Conditions: in vivo
row,Drug uptake [% ID/g],SMILES
1,5.36,CNc1ccc(/C=C2\Nc3ccc([125I])cc3C2=O)cc1

# Tested on: Spleen
# Assay: Biodistribution in ddY mouse spleen at 3.3 to 6.7 kBq, iv after 60 mins by gamma counting
# Assay type: ADME, organism-based
# Conditions: in vivo, 1 h
row,Drug uptake [% ID/g],SMILES
1,7.75,CNc1ccc(/C=C2\Nc3ccc([125I])cc3C2=O)cc1

# Tested on: Brain
# Assay: Biodistribution in ddY mouse brain at 3.3 to 6.7 kBq, iv after 30 mins by gamma counting
# Assay type: ADME, organism-based
# Conditions: in vivo, 0.5 h
row,Drug uptake [% ID/g],SMILES
1,0.74,CNc1ccc(/C=C2\Nc3ccc([125I])cc3C2=O)cc1

# Tested on: Intestine
# Assay: Biodistribution in ddY mouse intestine at 3.3 to 6.7 kBq, iv after 10 mins by gamma counting
# Assay type: ADME, organism-based
# Conditions: in vivo
row,Drug uptake [% ID/g],SMILES
1,4.24,CNc1ccc(/C=C2\Nc3ccc([125I])cc3C2=O)cc1

# Tested on: Stomach
# Assay: Biodistribution in ddY mouse stomach assessed per organ at 3.3 to 6.7 kBq, iv after 30 mins by gamma counting
# Assay type: ADME, organism-based
# Conditions: in vivo, 0.5 h
row,Drug uptake [%ID],SMILES
1,2.96,CNc1ccc(/C=C2\Nc3ccc([125I])cc3C2=O)cc1

# Tested on: Stomach
# Assay: Biodistribution in ddY mouse stomach assessed per organ at 3.3 to 6.7 kBq, iv after 60 mins by gamma counting
# Assay type: ADME, organism-based
# Conditions: in vivo, 1 h
row,Drug uptake [%ID],SMILES
1,2.92,CNc1ccc(/C=C2\Nc3ccc([125I])cc3C2=O)cc1

# Tested on: Pancreas
# Assay: Biodistribution in ddY mouse pancreas at 3.3 to 6.7 kBq, iv after 2 mins by gamma counting
# Assay type: ADME, organism-based
# Conditions: in vivo
row,Drug uptake [% ID/g],SMILES
1,5.43,CNc1ccc(/C=C2\Nc3ccc([125I])cc3C2=O)cc1

# Tested on: Brain
# Assay: Ratio of drug uptake in ddY mouse brain after 2 mins to drug uptake in ddY mouse brain after 30 mins
# Assay type: ADME, tissue-based
# Conditions: in vivo
row,Ratio,SMILES
1,3.31,CNc1ccc(/C=C2\Nc3ccc([125I])cc3C2=O)cc1

# Tested on: Spleen
# Assay: Biodistribution in ddY mouse spleen at 3.3 to 6.7 kBq, iv after 30 mins by gamma counting
# Assay type: ADME, organism-based
# Conditions: in vivo, 0.5 h
row,Drug uptake [% ID/g],SMILES
1,14.05,CNc1ccc(/C=C2\Nc3ccc([125I])cc3C2=O)cc1

# Tested on: Brain
# Assay: Biodistribution in ddY mouse brain at 3.3 to 6.7 kBq, iv after 2 mins by gamma counting
# Assay type: ADME, organism-based
# Conditions: in vivo
row,Drug uptake [% ID/g],SMILES
1,2.45,CNc1ccc(/C=C2\Nc3ccc([125I])cc3C2=O)cc1

# Tested on: Intestine
# Assay: Biodistribution in ddY mouse intestine at 3.3 to 6.7 kBq, iv after 30 mins by gamma counting
# Assay type: ADME, organism-based
# Conditions: in vivo, 0.5 h
row,Drug uptake [% ID/g],SMILES
1,7.55,CNc1ccc(/C=C2\Nc3ccc([125I])cc3C2=O)cc1

# Tested on: Pancreas
# Assay: Biodistribution in ddY mouse pancreas at 3.3 to 6.7 kBq, iv after 30 mins by gamma counting
# Assay type: ADME, organism-based
# Conditions: in vivo, 0.5 h
row,Drug uptake [% ID/g],SMILES
1,2.25,CNc1ccc(/C=C2\Nc3ccc([125I])cc3C2=O)cc1

# Tested on: Liver
# Assay: Biodistribution in ddY mouse liver at 3.3 to 6.7 kBq, iv after 30 mins by gamma counting
# Assay type: ADME, organism-based
# Conditions: in vivo, 0.5 h
row,Drug uptake [% ID/g],SMILES
1,11.59,CNc1ccc(/C=C2\Nc3ccc([125I])cc3C2=O)cc1

# Tested on: Spleen
# Assay: Biodistribution in ddY mouse spleen at 3.3 to 6.7 kBq, iv after 2 mins by gamma counting
# Assay type: ADME, organism-based
# Conditions: in vivo
row,Drug uptake [% ID/g],SMILES
1,6.97,CNc1ccc(/C=C2\Nc3ccc([125I])cc3C2=O)cc1

# Tested on: Blood
# Assay: Biodistribution in ddY mouse blood at 3.3 to 6.7 kBq, iv after 10 mins by gamma counting
# Assay type: ADME, organism-based
# Conditions: in vivo
row,Drug uptake [% ID/g],SMILES
1,4.97,CNc1ccc(/C=C2\Nc3ccc([125I])cc3C2=O)cc1

# Tested on: Intestine
# Assay: Biodistribution in ddY mouse intestine at 3.3 to 6.7 kBq, iv after 2 mins by gamma counting
# Assay type: ADME, organism-based
# Conditions: in vivo
row,Drug uptake [% ID/g],SMILES
1,2.29,CNc1ccc(/C=C2\Nc3ccc([125I])cc3C2=O)cc1

# Tested on: Heart
# Assay: Biodistribution in ddY mouse heart at 3.3 to 6.7 kBq, iv after 2 mins by gamma counting
# Assay type: ADME, organism-based
# Conditions: in vivo
row,Drug uptake [% ID/g],SMILES
1,8.52,CNc1ccc(/C=C2\Nc3ccc([125I])cc3C2=O)cc1

# Tested on: Stomach
# Assay: Biodistribution in ddY mouse stomach assessed per organ at 3.3 to 6.7 kBq, iv after 10 mins by gamma counting
# Assay type: ADME, organism-based
# Conditions: in vivo
row,Drug uptake [%ID],SMILES
1,1.7,CNc1ccc(/C=C2\Nc3ccc([125I])cc3C2=O)cc1
